# According to patent US9717247B2, “Synergistic fungicidal active combinations” (BAYER CROPSCIENCE AG, priority 2003, dated 2017):
# Tests used:
# Pyrenophora teres = Pyrenophora teres test (barley)/curative; details: in Hordeum vulgare, 288 h, read-out: Efficacy in % found
# Description: Pyrenophora teres Test (Barley)/Curative • Solvent: 50 parts by weight of N,N-dimethylacetamide • Emulsifier: 1 part by weight of alkylaryl polyglycol ether
# To test for curative activity, young plants are sprayed with a conidia suspension of Pyrenophora teres. The plants remain in an incubation cabinet at 20° C. and 100% relative atmospheric humidity for 48 hours.
# The plants are placed in a greenhouse at a temperature of about 20° C. and a relative atmospheric humidity of about 80%.
# Evaluation is carried out 12 days after the inoculation.
# [1] = tested on: Erysiphe graminis f.sp. hordei; assay: Erysiphe test (barley)/curative; assay type: in vivo; details: application rate 25 g/ha, curative, evaluation 6 days after inoculation
# [2] = tested on: Erysiphe graminis f.sp. hordei; assay: Erysiphe test (barley)/protective; assay type: in vivo; details: application rate 12.5 g/ha, protective, evaluation 6 days after inoculation
# Leptosphaeria nodorum [3] = assay: Leptosphaeria nodorum test (wheat)/protective; assay type: in vivo; details: application rate 25 g/ha, protective, evaluation 11 days after inoculation
# Sphaerotheca fuliginea = Sphaerotheca fuliginea test (cucumber)/protective; assay type: in vivo; details: protective, 7 days after inoculation; for pest or weed control at 1 g/ha: application rate 1 g/ha; for pest or weed control at 2 g/ha: application rate 2 g/ha
# Leptosphaeria nodorum [4] = assay: Leptosphaeria nodorum test (wheat)/curative; details: application rate 25 g/ha, curative, evaluation 8 days after inoculation
# Description: Leptosphaeria nodorum Test (Wheat)/Curative • Solvent: 50 parts by weight of N,N-dimethylacetamide • Emulsifier: 1 part by weight of alkylaryl polyglycol ether
# To test for curative activity, young plants are sprayed with a conidia suspension of Leptosphaeria nodorum.
# The plants are placed in a greenhouse at a temperature of about 15° C. and a relative atmospheric humidity of about 80%.
# (§1) Evaluation is carried out 8 days after the inoculation.
# Alternaria solani = Alternaria solani test (tomato)/protective; assay type: in vivo; details: protective, 3 days after inoculation
# Puccinia recondita = Puccinia recondita test (wheat)/curative; details: application rate 62.5 g/ha, curative, evaluation 8 days after inoculation
# Description: Puccinia recondita Test (Wheat)/Curative • Solvent: 50 parts by weight of N,N-dimethylacetamide • Emulsifier: 1 part by weight of alkylaryl polyglycol ether
# To test for curative activity, young plants are sprayed with a conidia suspension of Puccinia recondita. The plants remain in an incubation cabinet at 20° C. and 100% relative atmospheric humidity for 48 hours.
# The plants are placed in a greenhouse at a temperature of about 20° C. and a relative atmospheric humidity of about 80% to promote the development of rust pustules.
# as §1
# Phytophthora infestans = details: in vivo
# Botrytis cinerea [5] = assay: Botrytis cinerea test (in vitro)/microtitre plates; assay type: cell-based; details: 3 ppm, PDB, 7 days of incubation
# Rhizoctonia solani = Rhizoctonia solani test (in vitro)/microtitre plates; assay type: cell-based; details: PDB, 5 days of incubation
# Description: Rhizoctonia solani Test (In Vitro)/Microtitre Plates The microtest is carried out in microtitre plates using potato dextrose broth (PDB) as liquid test medium. The active compounds are used as technical grade a.i., dissolved in acetone. For inoculation, a mycelium suspension of Rhizoctonia solani is used. After 5 days of incubation in the dark and with shaking (10 Hz) for each filled cavity of the microtitre plates, the light transmittance is determined with the aid of a spectrophotometer.
# Botrytis cinerea [6] = assay: Botrytis cinerea test (bean)/protective; details: protective, 2 days after inoculation
# Description: After the spray coating has dried on, 2 small pieces of agar colonized by Botrytis cinerea are placed onto each leaf. The inoculated plants are placed in a darkened chamber at about 20° C. and 100% relative atmospheric humidity.
# The size of the infected areas on the leaves is evaluated 2 days after the inoculation.
# Pyricularia oryzae = assay type: cell-based; details: 3 ppm; in vitro, PDB, 3 days of incubation
# Plasmopara viticola = Plasmopara viticola test (grapevine)/protective; assay type: in vivo; details: protective, 6 days after inoculation
# Gibberella zeae = assay type: cell-based; details: 0.3 ppm; in vitro, PDB, 3 days of incubation
# [7] = Podosphaera fuliginea, 168 h, read-out: Efficacy in % found
# [8] = Podosphaera fuliginea, 168 h, application rate 10 g/ha, read-out: Efficacy in % found
compound,measurement,setting,value
"N#Cc1ccccc1NC(=O)c1snc(Cl)c1Cl [3,4-dichloro-N-(2-cyanophenyl)isothiazole-5-carboxamide]",pest or weed control at 125 g/ha,Pyrenophora teres,43%
"Cc1nn(C)c(F)c1C(=O)Nc1ccccc1C(C)CC(C)(C)C (centres unmarked) [(1-8), 5-fluoro-1,3-dimethyl-N-[2-(1,3,3-trimethylbutyl)phenyl]-1H-pyrazole-4-carboxamide]",Efficacy in % found,[1],0%
same,pest or weed control at 25 g/ha,Pyrenophora teres,14%
same,Efficacy in % found,[2],11%
"CC(C)CC(C)c1ccccc1NC(=O)c1ccccc1I (centres unmarked) [(1-13), N-[2-(1,3-dimethylbutyl)phenyl]-2-iodobenzamide]",Efficacy in % found,Leptosphaeria nodorum [3],13%
same,pest or weed control at 1 g/ha,Sphaerotheca fuliginea; [7],10%
same,Efficacy in % found,Leptosphaeria nodorum [4],0%
same,Efficacy in % found,[2],0%
same,Efficacy in % found,Alternaria solani; application rate 2 g/ha,0%
"CC(C)CC(C)c1ccccc1NC(=O)c1ccccc1C(F)(F)F (centres unmarked) [(1-15), N-[2-(1,3-dimethylbutyl)phenyl]-2-(trifluoromethyl)benzamide]",pest or weed control at 25 g/ha,Pyrenophora teres,14%
same,Efficacy in % found,[2],0%
"CO/C=C(/C(=O)OC)c1ccccc1Oc1cc(Oc2ccccc2C#N)ncn1 [(2-1) azoxystrobin, azoxystrobin]",pest or weed control at 4 g/ha,"Sphaerotheca fuliginea; Podosphaera fuliginea, 168 h, application rate 4 g/ha, read-out: Efficacy in % found",50%
"CO/N=C(/C1=NOCCO1)c1ccccc1Oc1ncnc(Oc2ccccc2Cl)c1F [(2-2) fluoxastrobin, fluoxastrobin]",pest or weed control at 25 g/ha,Pyrenophora teres,0%
same,pest or weed control at 2 g/ha,Sphaerotheca fuliginea; [7],37%
same,Efficacy in % found,Leptosphaeria nodorum [4],29%
"CNC(=O)/C(=N/OC)c1ccccc1Oc1ncnc(Oc2cccc(Cl)c2C)c1F [(2-3), (2E)-2-(2-{[6-(3-chloro-2-methylphenoxy)-5-fluoro-4-pyrimidinyl]oxy}phenyl)-2-(methoxyimino)-N-methylethanamide]",Efficacy in % found,Alternaria solani; application rate 1 g/ha,39%
same,Efficacy in % found,Alternaria solani; application rate 2 g/ha,32%
"CO/N=C(/C(=O)OC)c1ccccc1CO/N=C(\C)c1cccc(C(F)(F)F)c1 [(2-4) trifloxystrobin, trifloxystrobin]",pest or weed control at 1 g/ha,Sphaerotheca fuliginea; [7],20%
same,Efficacy in % found,[2],78%
"CO/N=C(/C(=O)OC)c1ccccc1COc1ccccc1C [(2-9) kresoxim-methyl, kresoxim-methyl]",Efficacy in % found,Puccinia recondita,0%
"CO/C=C(/C(=O)OC)c1ccccc1COc1cccc(C(F)(F)F)n1 [(2-11) picoxystrobin, picoxystrobin]",pest or weed control at 125 g/ha,Pyrenophora teres,86%
"COC(=O)N(OC)c1ccccc1COc1ccn(-c2ccc(Cl)cc2)n1 [(2-12) pyraclostrobin, pyraclostrobin]",Efficacy in % found,Alternaria solani; application rate 2 g/ha,37%
"CCCC1COC(Cn2cncn2)(c2ccc(Cl)cc2Cl)O1 (centres unmarked) [(3-3) propiconazole, propiconazole]",pest or weed control at 1 g/ha,Sphaerotheca fuliginea; [7],37%
"Fc1ccc(C2(Cn3cncn3)OC2c2ccccc2Cl)cc1 (centres unmarked) [(3-12) epoxyconazole, epoxiconazole]",pest or weed control at 125 g/ha,Pyrenophora teres,57%
"OC(Cc1ccccc1Cl)(Cn1nc[nH]c1=S)C1(Cl)CC1 (centres unmarked) [(3-15) prothioconazole, prothioconazole]",Efficacy in % found,[1],22%
same,Efficacy in % found,Leptosphaeria nodorum [3],13%
same,pest or weed control at 1 g/ha,Sphaerotheca fuliginea; [7],43%
same,Efficacy in % found,[2],67%
"CC(C)(C)C(O)(CCc1ccc(Cl)cc1)Cn1cncn1 (centres unmarked) [(3-17) tebuconazole, tebuconazole]",pest or weed control at 25 g/ha,Pyrenophora teres,29%
same,pest or weed control at 2 g/ha,Sphaerotheca fuliginea; [7],10%
same,Efficacy in % found,Leptosphaeria nodorum [4],29%
"CC(C)(C)C(O)C(Oc1ccc(-c2ccccc2)cc1)n1cncn1 (centres unmarked) [(3-21) bitertanol, bitertanol]",pest or weed control at 2 g/ha,Sphaerotheca fuliginea; [7],20%
"Cc1ccc(N(SC(F)(Cl)Cl)S(=O)(=O)N(C)C)cc1 [(4-2) tolylfluanid, tolylfluanid]",pest or weed control at 10 g/ha,Sphaerotheca fuliginea; [8],0%
"Cc1ccc(C(C)NC(=O)[C@H](NC(=O)OC(C)C)C(C)C)cc1 (some centres unmarked) [(5-1) iprovalicarb, iprovalicarb]",Efficacy in % found,Phytophthora infestans,64%
"CC(C)OC(=O)N[C@H](C(=O)N[C@H](C)c1nc2ccc(F)cc2s1)C(C)C [(5-3) benthiavalicarb, benthiavalicarb]",Efficacy in % found,Phytophthora infestans,50%
"O=C(Nc1ccccc1-c1ccc(Cl)cc1)c1cccnc1Cl [(6-2) boscalid, boscalid]",pest or weed control at 1 g/ha,Sphaerotheca fuliginea; [7],10%
"CC1(C(=O)Nc2ccc(O)c(Cl)c2Cl)CCCCC1 [(6-6) fenhexamid, fenhexamid]",pest or weed control at 10 g/ha,Sphaerotheca fuliginea; [8],0%
"CCC1(C(=O)NC(C)c2ccc(Cl)cc2)C(C)C1(Cl)Cl (centres unmarked) [(6-7) carpropamid, carpropamid]",pest or weed control at 125 g/ha,Pyrenophora teres,14%
"CC(C)CC(C)c1sccc1NC(=O)c1cn(C)nc1C(F)(F)F (centres unmarked) [(6-14) penthiopyrad, penthiopyrad]",Efficacy in % found,Puccinia recondita,44%
"COCC(=O)N(c1c(C)cccc1C)[C@H](C)C(=O)OC [(8-4) metalaxyl-M, metalaxyl-M]",Efficacy in % found,Alternaria solani; application rate 2 g/ha,0%
"COC(=O)[C@@H](C)N(C(=O)Cc1ccccc1)c1c(C)cccc1C [(8-5) benalaxyl-M, benalaxyl-M]",Efficacy in % found,Alternaria solani; application rate 2 g/ha,0%
"Cc1cc(C)nc(Nc2ccccc2)n1 [(9-3) pyrimethanil, pyrimethanil]",pest or weed control at 10 g/ha,Sphaerotheca fuliginea; [8],0%
"COC(=O)Nc1nc2ccccc2[nH]1 [(10-3) carbendazim, carbendazim]",Efficacy in % found,Botrytis cinerea [5],86%
"CCCOC(=O)NCCCN(C)C [(11-2) propamocarb, propamocarb]",Efficacy in % found,Rhizoctonia solani; 1 ppm,7%
"CC(C)NC(=O)N1CC(=O)N(c2cc(Cl)cc(Cl)c2)C1=O [(12-4) iprodione, iprodione]",pest or weed control at 10 g/ha,Sphaerotheca fuliginea; [8],0%
same,Efficacy in % found,Botrytis cinerea [6]; application rate 5 g/ha,13%
same,Efficacy in % found,Botrytis cinerea [6]; application rate 10 g/ha,54%
same,Efficacy in % found,Botrytis cinerea [6]; application rate 20 g/ha,47%
"CCCN(CCOc1c(Cl)cc(Cl)cc1Cl)C(=O)n1ccnc1 [(14-2) prochloraz, prochloraz]",Efficacy in % found,Puccinia recondita,0%
"[O-][n+]1nc(-n2ccnc2)nc2ccc(Cl)cc21 [(14-3) triazoxide, triazoxide]",Efficacy in % found,Pyricularia oryzae,3%
"N#Cc1c[nH]cc1-c1cccc2c1OC(F)(F)O2 [(16-2) fludioxonil, fludioxonil]",Efficacy in % found,Puccinia recondita,0%
"CCO[PH](=O)O [(17-1) fosetyl-A1, fosetyl-A1]",Efficacy in % found,Plasmopara viticola; application rate 500 g/ha,33%
same,Efficacy in % found,Plasmopara viticola; application rate 1000 g/ha,58%
"N#Cc1c(Cl)c(Cl)c(Cl)c(C#N)c1Cl [(19-2) chlorothalonil, chlorothalonil]",pest or weed control at 10 g/ha,Sphaerotheca fuliginea; [8],0%
CSC1=N[C@@](C)(c2ccccc2)C(=O)N1Nc1ccccc1 [(19-3) fenamidone],Efficacy in % found,Gibberella zeae,15%
"CCCN(CC)CC1COC2(CCC(C(C)(C)C)CC2)O1 (centres unmarked) [(19-10) spiroxamine, spiroxamine]",pest or weed control at 10 g/ha,Sphaerotheca fuliginea; [8],0%
same,Efficacy in % found,Puccinia recondita,0%
"CSC1=N[C@@](C)(c2ccccc2)C(=O)N1Nc1ccccc1 [(19-13) fenamidone, fenamidone]",Efficacy in % found,Phytophthora infestans,47%
"O=C(Nc1ccccc1)N(Cc1ccc(Cl)cc1)C1CCCC1 [(20-1) pencycuron, pencycuron]",Efficacy in % found,Rhizoctonia solani; 1 ppm,54%
"C[C@H](Nc1c(-c2c(F)cc(F)cc2F)c(Cl)nc2ncnn12)C(F)(F)F [(22-1), 5-chloro-N—[(IS)-2,2,2-trifluoro-1-methylethyl]-6-(2,4,6-trifluorophenyl)[1,2,4]triazolo-[1,5-a]pyrimidine-7-amine]",pest or weed control at 1 g/ha,Sphaerotheca fuliginea; [7],22%
"CC(C)[C@@H](C)Nc1c(-c2c(F)cc(F)cc2F)c(Cl)nc2ncnn12 [(22-2), 5-chloro-N—[(IR)-1,2-dimethylpropyl]-6-(2,4,6-trifluorophenyl)[1,2,4]triazolo[1,5-a]-pyrimidine-7-amine]",pest or weed control at 1 g/ha,Sphaerotheca fuliginea; [7],22%
"Cn1cc(C(=O)Nc2ccc(F)cc2-c2ccc(Cl)c(Cl)c2)c(C(F)F)n1 [(24-1), N-(3′,4′-dichloro-5-fluoro-1,1′-biphenyl-2-yl)-3-(difluoromethyl)-1-methyl-1H-pyrazole-4-carboxamide]",Efficacy in % found,Phytophthora infestans,0%
same,Efficacy in % found,Rhizoctonia solani; 0.003 ppm,50%
mancozeb [(7-1) mancozeb],Efficacy in % found,Sphaerotheca fuliginea; application rate 10 g/ha,0%
propineb [(7-4) propineb],Efficacy in % found,Sphaerotheca fuliginea; application rate 5 g/ha,0%
